Assay results taken from patent US11414677B2, “Methods and compositions for performing continuous directed evolution” (Massachusetts Institute of Technology, priority 2017, dated 2022).
Marks after values point to notes of the source that are not given here.

Legend:
HEK293A cells = assay: Resazurin assay to assess acute toxicity of common tissue culture antibiotics; format: cell-based, human; conditions: two-day treatment; for acute toxicity (cell viability by resazurin fluorescence): various concentrations
Method: FIGS. 46A-46D. Resazurin assay to assess acute toxicity of common tissue culture antibiotics. HEK293A cells were treated for two days with either G418 (FIG. 46A), puromycin (FIG. 46B), blasticidin (FIG. 46C), or hygromycin (FIG. 46D), and cell viability was analyzed by resazurin fluorescence.
A 96-well plate was seeded with HEK293A cells (˜15,000) and treated with either puromycin HCl (Corning), Hygromycin B (Thermo Fisher), Blasticidin S HCl (Thermo Fisher), or G418 (Enzo). Two days later, 10 μL of 0.1 mg/mL resazurin (MilliporeSigma) was added and incubated for 1.5 h. Media was transferred to a fresh 96-well plate and fluorescence was analyzed on a Bio-Tek Synergy H1 Hybrid Microplate Reader.

RFP.ΔAdPol.adenovirus = assay: Time course of antibiotic inhibition of adenoviral replication; format: cell-based, Adenovirus type 5; conditions: treatment initiated 24 h post-infection
Description: FIGS. 47A-47B. Time-course of antibiotic-mediated inhibition of adenoviral infection. HEK293A cells expressing wild-type AdPol were infected with RFP.ΔAdPol.adenovirus and treated with either a) puromycin, or b) blasticidin at various time points post-infection (h.p.i.=hours post-infection). After 2 days, the infections were harvested and titered by flow cytometry. Titers are given in infectious units per milliliter (IU/mL), defined as the volume of adenoviral supernatant required to induce fluorescence in a cell as analyzed by flow cytometry. Dashed line represents the limit of detection (L.O.D) of the assay. Titers below this limit are inaccurate due to the percentage of infected cells being below the 1% error threshold of flow cytometry.
RFP.ΔAdPol.adenovirus (TABLE 16) was used to infect a 24-well plate of wild-type AdPol cells (150,000 cells/well) (TABLE 17) at MOI=1, and either blasticidin or puromycin was added at various time points following the infection. Viral supernatants were harvested ˜48 h post-infection, and titered by flow cytometry as described above.

[1] = system: ΔAdPol.adenovirus encoding either tTA or RFP; assay: tTA-induced resistance to antibiotic inhibition of adenoviral replication; format: cell-based, Adenovirus type 5; conditions: treatment 10 h post-infection
Method: FIGS. 48A-48D. tTA-induced resistance to antibiotic mediated inhibition of adenoviral infection. Either wild-type AdPol cells, TRE3G.puroR cells, or TRE3G.blastR cells were infected with ΔAdPol.adenovirus encoding either tTA (+tTA) or RFP (−tTA). Ten hours post-infection, wild-type AdPol cells were treated with either puromycin (FIG. 48A) or (FIG. 48B) blasticidin, TRE3G.puroR cells were treated with puromycin (FIG. 48C), and TRE3G.blastR cells were treated with blasticidin (FIG. 48D). After 2, days, the infections were harvested and titered by flow cytometry. Titers are given in infectious units per milliliter (IU/mL), defined as the volume of adenoviral supernatant required to induce fluorescence in a cell as analyzed by flow cytometry. Dashed line represents the limit of detection (L.O.D) of the assay. Titers below this limit are inaccurate owing to the percentage of infected cells being below the 1% error threshold of flow cytometry.
Either RFP.ΔAdPol.adenovirus, or tTA.mCherry.ΔAdPol.adenovirus (TABLE 16) was used to infect a 24-well plate of either wild-type AdPol cells, TRE3G.puroR cells, or TRE3G.blastR cells (150,000 cells/well) (TABLE 17) at MOI=1, and either puromycin or blasticidin was added 10 h post-infection. Viral supernatants were harvested ˜48 h post-infection, and titered by flow cytometry as described above.

[2] = system: endogenous tTA operator (pLVX-TRE3G.eGFP reporter); assay: Reverse genetics of tTA variants with pLVX-TRE3G.eGFP reporter in HEK293A cells; format: cell-based, human; conditions: transient co-transfection with eGFP reporter, presence or absence of 20 μM dox
Description: FIGS. 22A-22F. FIG. 22A. Serial-passaging schemes for evolving functional tTA variants that gain dox resistance in human cells. Two approaches to selection pressure were used, either with increasing dox concentrations (Trial 1) or a constant, moderate dox concentration (Trial 2). FIG. 22B. tTA-induced GFP expression in the presence of dox after each round of evolution for Trial 1. Phenotyping cells were infected with passaged viral populations and analyzed by flow cytometry. The percentage of infected GFP-positive cells at each passage in the presence of dox was normalized to the percentage of infected GFP-positive cells at each passage in the absence of dox. N.D.=not detectable owing to low viral titer. FIG. 22C. Non-reference allele frequencies for all mutations observed at >1% frequency over the course of the directed evolution experiment for Trial 1 (see FIG. 28 for Trial 2). […]
HEK-293A cells were seeded in a 12-well plate at ˜4×10^5 cells/well. […] 48 h post-transfection, cells were analyzed by flow cytometry (see above for sample preparation). Promoter activity was calculated based on the mean fluorescence intensity of GFP fluorescence, backgated for only mCherry-expressing cells.
HEK-293A cells were seeded in a 12-well plate (˜400,000 cells/well). […] 48 h post-transfection, samples were stained with 0.2 μg/mL DAPI, and analyzed on a BD LSR II analyzer.

[3] = system: AdGLΔPol adenoviral genome; assay: Mutagenesis rate determination by serial passaging and deep sequencing of a 6.5 kb fragment; format: cell-based, Adenovirus type 5
Method: The mutagenic potential of AdPol variants was evaluated following a previously reported protocol (Uil T. G. et al., Nucleic Acids Res. 39, e30 (2011)). Briefly, a polymerase-deleted Ad5, AdGLΔPol, was subjected to 10 serial passages on cultures of 911 cells (Fallaux F. J. et al., Hum. Gene Ther. 7, 215-222 (1996)) expressing EP-Pol in order to accumulate mutations. After 10 serial passages, 911 cells expressing wild-type AdPol were infected in a 6-well plate at ˜50 plaque-forming units/well in order to amplify pools of 50 viral clones for sequencing. Using pools of 50 or fewer clonal viruses ensured that mutations present in only one clone will be present at a frequency above the threshold of detection. From each 50-clone viral pool, a 6.5-kb fragment was amplified and prepared for deep sequencing. Libraries were subjected to 32 cycles of single-read sequencing by an Illumina Genome Analyzer II.
The mutagenic potential of EP-Pol was evaluated following a previously reported protocol (Uil T. G. et al., Nucleic Acids Res., 39(5): e30 (2011)). Briefly, a polymerase-deleted Ad5, AdGLΔAdPol, was subjected to 10 serial passages on cultures of 911 cells expressing EP-Pol in order to accumulate mutations. After 10 serial passages, 911 cells expressing wild-type AdPol were infected in a 6-well plate at ˜50 plaque-forming units/well in order to amplify pools of 50 viral clones for sequencing. Using pools of 50 or fewer clonal viruses ensures that mutations present in only one clone will be present at a frequency above the threshold of detection. From each 50-clone viral pool, a 6.5 kb fragment was amplified and prepared for deep sequencing. Libraries were subjected to 32 cycles of single-read sequencing by an Illumina Genome Analyzer II (GA-II).

Molecule: CN[C@@H]1[C@@H](O)[C@@H](O[C@@H]2[C@@H](O)[C@H](O[C@H]3O[C@H]([C@@H](C)O)[C@@H](O)[C@H](O)[C@H]3N)[C@@H](N)C[C@H]2N)OC[C@]1(C)O [G418]
- acute toxicity (cell viability by resazurin fluorescence) (HEK293A cells): only mildly toxic at the highest concentrations

Molecule: COc1ccc(C[C@H](N)C(=O)N[C@H]2[C@@H](O)[C@H](n3cnc4c(N(C)C)ncnc43)O[C@@H]2CO)cc1 [puromycin]
- dynamic range of inhibitory concentrations (HEK293A cells): less than two orders of magnitude
- acute toxicity (cell viability by resazurin fluorescence) (HEK293A cells): completely toxic
- inhibition of adenoviral replication (RFP.ΔAdPol.adenovirus): Neither puromycin nor blasticidin were able to inhibit adenoviral replication
- effect on ΔAdPol.adenovirus replication ([1]; TRE3G.puroR cell line): equally toxic to both tTA-expressing and RFP-expressing ΔAdPol.adenovirus
- effect on ΔAdPol.adenovirus replication ([1]; wild-type AdPol cell line): inhibited both RFP-expressing and tTA-expressing ΔAdPol.adenovirus replication

Molecule: E147K: tTA variant with single amino acid substitution E147K, fixed in Trial 1
- dox-resistance of tTA variant [2]: confer dox-resistance

Molecule: H100Y: tTA variant with single amino acid substitution H100Y, fixed in Trial 2
- dox-resistance of tTA variant [2]: confer dox-resistance

B1: EP-Pol (protein)
chain: MALAQAHRARRLHAEAPDSGDQPPRRRVRQQPTRAAPAPARARRRRAPAPSPGGSGAPPTSGGSPASPLLDASSKDTPAAHRPPRGTVVAPRGCGLLQAIDAATNQPLEIRYHLDLARALTRLCEVNLQELPPDLTPRELQTMDSSHLRDVVIKLRPPRADIWTLGSRGVVVRSTVTPLEQPDGQGQAAEVEDHQPNPPGEGLKFPLCFLVRGRQVNLVQDVQPVHRCQYCARFYKSQHECSARRRDFYFHHINSHSSNWWREIQFFPIGSHPRTERLFVTYDVETYTWMGAFGKQLVPFMLVMKFGGDEPLVTAARDLAANLGWDRWEQDPLTFYCITPEKMAIGRQFRTFRDHLQMLMARDLWSSFVASNPHLADWALSEHGLSSPEELTYEELKKLPSIKGIPRFLELYIVGHNINGYDEIVLAAQVINNRSEVPGPFRITRNFMPRAGKILFNDVTFALPNPRSKKRTDFLLWEQGGCDDTDFKYQYLKVMVRDTFALTHTSLRKAAQAYALPVEKGCCAYQAVNQFYMLGSYRSEADGFPIQEYWKDREEFVLNRELWKKKGQDKYDIIKETLDYCALDVQVTAELVNKLRDSYASFVRDAVGLTDASFNVFQRPTISSNSHAIFRQIVFRAEQPARSNLGPDLLAPSHELYDYVRASIRGGRCYPTYLGILREPLYVYDICGMYASALTHPMPWGPPLNPYERALAARAWQQALDLQGCKIDYFDARLLPGVFTVDADPPDETQLDPLPPFCSRKGGRLCWTNERLRGEVATSVDLVTLHNRGWRVHLVPDERTTVFPEWRCVAREYVQLNIAAKERADRAKNQTLRSIAKLLSNALYGSFATKLDNKKIVFSDQMDAATLKGITAGQVNIKSSSFLETDNLSAEVMPAFQREYSPQQLALADSDAEESEDERAPTPFYSPPSGTPGHVAYTYKPITFLDAEEGDMCLHTLERVDPLVDNDRYPSHLASFVLAWTRAFVSEWSEFLYEEDRGTPLEDRPLKSVYGDTDSLFVTERGHRLMETRGKKRIKKHGGNLVFDPERPELTWLVECETVCGACGADAYSPESVFLAPKLYALKSLHCPSCGASSKGKLRAKGHAAEGLDYDTMVKCYLADAQGEDRQRFSTSRTSLKRTLASAQPGAHPFTVTQTTLTRTLRPWKDMTLARLDEHRLLPYSESRPNPRNEEICWIEMPYPYDVPDYA
modifications: HA tag
- Substitution load per million bp ([3]; 6020 bp analyzed, 27.3 clones estimated): 365 per million bp
- mutations introduced into the genome ([3]; adenoviral genome ~35 kb): ~1.3 mutations per infected cell pe
- Substitutions per Ad genome per viral generation ([3]; assuming a genome size of 36 kb, 27.3 genomes, 10 passages = 10 generations): 1.31**
- mutation rate relative to the error rate of wild-type AdPol evaluated by the same method ([3]; comparison with Uil et al. 2011): ~370 fold
- mutation rate ([3]; next-generation sequencing of a 6.5 kb region in a small pool of passaged clones): approximately 3.7×10^−5 per base per cell infection cycle
